{"source": "patent US20190175783A1", "about": "“High-Throughput Method for Detecting Tooth Stain Prevention and Removal” (Johnson & Johnson Consumer Inc., priority 2017, published 2019)", "key": {"[1]": {"test": "Stain removal test (450 nm absorbance of stain removed)", "protocol": "• 1. Form a pellicle coat on hydroxyapatite (HAp) particles by mixing the particles with saliva and incubating the mixture. • 2. Transfer HAp particle/saliva suspension into a large batch filter container. • 3. Filter the saliva supernatant to waste. • 4. Stain particles by adding a stain solution directly to the filter container and incubate. • 5. Transfer stained, pellicle coated HAp particle suspension into filter container. • 6. Filter the stained, pellicle coated HAp particles, sending the supernatant to waste. • 7. Re-suspend stained, pellicle coated HAp particles in water, and optionally store for future testing. • 8. Prepare stained, pellicle coated HAp particles for treatment. • 9. Treat stained HAp particles. • 10. Filter and collect the supernatant. • 11. Make UV-Vis absorbance measurements on collected supernatant.\nA mass of one gram of hydroxyapatite powder (Bio-Rad, Hercules, Calif., catalogue 1570020) was suspended in artificial saliva (Northeast Laboratories, Winslow, Me., catalogue no. T0300) at a concentration of 10 milligram/100 microliter and allowed to incubate for 15 minutes at 37° C. to form a pellicle coating. The supernatant was filtered out from the particles. The particles were re-suspended in 10% instant coffee stain solution at a concentration of 10 milligram/100 microliter and incubated at 37° C. for 30 minutes. The coffee solution was removed by filtration and the particles were washed of any loosely bound stain. The now coffee stained, pellicle coated hydroxyapatite particles were suspended in water at a concentration of 10 milligram/100 microliter. A volume of 100 microliter per sample was aliquoted into respective filter vesicle (96-well filter plate or filter tube) and the supernatant was filtered out from the particles (n=3 per sample). The treatment solutions were prepared within a range of 0% to 2% polyphosphate solution in water. The stock 2% w/v solution was serial diluted 1:1 in water to achieve treatment concentrations of polyphosphates of 1%, 0.5%, 0.25%, 0.125%, 0.0625%, and 0.03125% w/v. The 0% solution was a water control. After, the stained hydroxyapatite particles were exposed to 200 microliter of respective treatment for 1 or 2 minutes at room temperature with agitation (120 rpm). The polyphosphate treatment solutions ranged from 0.031% to 2% w/v. A negative control, using distilled water as the treatment solution, was tested as a comparison to the polyphosphate treatment solutions. […] Subsequently, absorbance measurements (Tecan, Infinite M200 Pro) were made between 230 and 1000 nm with a 10 nm step increase between measurements. The absorbance at 450 nm was used as a measure of stain removed, where higher absorbance values indicated more stain displaced from the hydroxyapatite particles."}, "[2]": {"test": "Stain prevention test (450 nm absorbance of stain displaced after pre-treatment)", "protocol": "Stain Prevention Test Procedure: • 1. Form a pellicle coat on hydroxyapatite (HAp) particles by mixing the particles with saliva and incubating the mixture. • 2. Transfer HAp particle/saliva suspension into a large batch filter container. • 3. Filter the saliva supernatant to waste. • 4. Treat pellicle coated HAp particles, sending the supernatant to waste. • 5. Filter the treated, pellicle coated HAp particles, sending the supernatant to waste. • 6. Stain the pre-treated pellicle coated HAp particles by adding a stain solution directly to the filter container and incubate. • 7. Wash any loosely bound stain off the pre-treated, pellicle coated HAp particles. • 8. Elute the stain from the stained, pre-treated, pellicle coated HAp particles 5% PPi solution. • 9. Filter and collect supernatant. • 10. Make UV-Vis absorbance measurements on collected supernatant.\nA mass of 1 gram of hydroxyapatite particles (Bio-Rad, Hercules, Calif., catalogue 1570020) was suspended in artificial saliva at a concentration of 10 milligram/100 microliter and allowed to incubate for 15 minutes at 37° C. to form a pellicle coating. A volume of 100 microliter per sample was aliquoted into respective filter vesicle (96-well filter plate or filter tube) and the supernatant was filtered out from the particles (n=3 per sample treatment). The treatment solutions were prepared within a range of 0% to 2% polyphosphate solution in water. The stock 2% w/v solution was serial diluted 1:1 in water to achieve treatment concentrations of polyphosphates of 1%, 0.5%, 0.25%, 0.125%, 0.0625%, and 0.03125% w/v. The 0% solution was a water control. The pellicle coated hydroxyapatite particles were exposed to 200 microliter of treatment solution of polyphosphate for at least 1 minute at room temperature with agitation (120 rpm). The treatment was removed by filtration and the particles were exposed to 100 microliter of a 10% instant coffee stain solution and incubated at 37° C. for 30 minutes. The coffee was removed by filtration and the particles were washed of any loosely bound stain. The residual stain on the particles was displaced with 200 microliter of an alkaline 5% pyrophosphate solution by incubating at room temperature for 10 minutes. The displaced stain was collected in a 96-well plate and absorbance measurements were made (Tecan, Infinite M200 Pro) between 230 and 1000 nm with a 10 nm step increase between measurements. The absorbance at 450 nm was used as a measure of stain prevention, with the lower absorbance values indicating more stain prevented from attaching to hydroxyapatite particle."}, "[3]": {"conditions": "concentration from 0.500% to 2.00%"}, "[4]": {"conditions": "concentration increased from 0.031% to 0.500%"}}}
{"substance": "polyphosphate [polyphosphate solutions]", "values": [{"measurement": "stain removal, effect of treatment time", "setting": "[1]; 1 versus 2 minute treatments", "value": "no significant difference"}, {"measurement": "level of stain removal (450 nm absorbance)", "setting": "[1]; [3]", "value": "remained constant"}, {"measurement": "stain removal (450 nm absorbance)", "setting": "[1]; [4]", "value": "stain removal increased"}, {"measurement": "450 nm absorbance values of stain removed as a function of concentration", "setting": "[1]; polyphosphate 0.031% to 2% w/v in water, 1- and 2-minute treatments, 10% instant coffee stain, FIG. 1", "value": "clear dose response"}, {"measurement": "stain prevention, effect of pre-treatment time", "setting": "[2]; 1-, 2- and 10-minute stain prevention pre-treatments", "value": "no significant difference"}, {"measurement": "level of stain removal (450 nm absorbance of displaced stain)", "setting": "[2]; [3]", "value": "remained constant"}, {"measurement": "stain prevention (450 nm absorbance)", "setting": "[2]; [4]", "value": "stain prevention increased"}, {"measurement": "450 nm absorbance values of stain displaced as a function of concentration", "setting": "[2]; polyphosphate 0.031% to 2% w/v in water, 1-, 2- and 10-minute pre-treatments, 10% instant coffee stain, FIG. 2", "value": "clear dose response"}]}
